In the supplement of paper PMC10307832:

How the values were obtained:
Experiment in all cases: relative viability (nuclei count vs DMSO), 5 days (fraction); higher = more cells survive
COR-L 105 = tested on: COR-L 105
Outline: (§1)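 Relative viability divides the nuclei count in treated wells by that in vehicle wells. Lung cancer cell lines were seeded in 1536-well plates, dosed by pin tool the next day, and fixed and stained after 5 days in one step with final 0.05% Triton X-100, 1% formaldehyde and 1 ug/ml Hoechst. Dosing was a single drug or a fixed anchor-drug dose plus five library-drug doses (not always all listed) in √10 steps, and values are medians of duplicate plates imaged at 4×.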

A-427 = tested on: A-427
Outline: as §1

NCI-H441 = tested on: NCI-H441
Outline: as §1

NCI-H1792 = tested on: NCI-H1792
Outline: as §1

NCI-H23 = tested on: NCI-H23
Outline: as §1

EMC-BAC-2 = tested on: EMC-BAC-2
Outline: as §1

ChaGo-K-1 = tested on: ChaGo-K-1
Outline: as §1

NCI-H1975 = tested on: NCI-H1975
Outline: as §1

H3255 = tested on: H3255
Outline: as §1

NCI-H1666 = tested on: NCI-H1666
Outline: as §1

NCI-H596 = tested on: NCI-H596
Outline: as §1

NCI-H1755 = tested on: NCI-H1755
Outline: as §1

NCI-H520 = tested on: NCI-H520
Outline: as §1

NCI-H2170 = tested on: NCI-H2170
Outline: as §1

NCI-H1563 = tested on: NCI-H1563
Outline: as §1

SK-MES-1 = tested on: SK-MES-1
Outline: as §1

EKVX = tested on: EKVX
Outline: as §1

PC-3 [JPC-3] = tested on: PC-3 [JPC-3]
Outline: as §1

LOU-NH91 = tested on: LOU-NH91
Outline: as §1

LK-2 = tested on: LK-2
Outline: as §1

NCI-H1734 = tested on: NCI-H1734
Outline: as §1

SW 900 = tested on: SW 900
Outline: as §1

C=C1C(=O)O[C@@H](CCCCCCCC)[C@@H]1C(=O)O [C-75] + CCNC(=O)c1noc(-c2cc(C(C)C)c(O)cc2O)c1-c1ccc(CN2CCOCC2)cc1 [Luminespib] (partner 0.01 µM)
relative viability (COR-L 105; first compound 0.08 µM): 0.688 | relative viability (COR-L 105; first compound 0.253 µM): 0.584 | relative viability (COR-L 105; first compound 0.8 µM): 0.817 | relative viability (COR-L 105; first compound 2.53 µM): 0.815 | relative viability (COR-L 105; first compound 8 µM): 0.638 | relative viability (A-427; first compound 0.08 µM): 0.931 | relative viability (A-427; first compound 0.253 µM): 0.788 | relative viability (A-427; first compound 0.8 µM): 0.922 | relative viability (A-427; first compound 2.53 µM): 0.842 | relative viability (A-427; first compound 8 µM): 0.703 | relative viability (NCI-H441; first compound 0.08 µM): 0.329 | relative viability (NCI-H441; first compound 0.253 µM): 0.453 | relative viability (NCI-H441; first compound 0.8 µM): 0.295 | relative viability (NCI-H441; first compound 2.53 µM): 0.518 | relative viability (NCI-H441; first compound 8 µM): 0.305 | relative viability (NCI-H1792; first compound 0.08 µM): 0.423 | relative viability (NCI-H1792; first compound 0.253 µM): 0.484 | relative viability (NCI-H1792; first compound 0.8 µM): 0.514 | relative viability (NCI-H1792; first compound 2.53 µM): 0.331 | relative viability (NCI-H1792; first compound 8 µM): 0.522 | relative viability (NCI-H23; first compound 0.08 µM): 0.246 | relative viability (NCI-H23; first compound 0.253 µM): 0.206 | relative viability (NCI-H23; first compound 0.8 µM): 0.198 | relative viability (NCI-H23; first compound 2.53 µM): 0.222 | relative viability (NCI-H23; first compound 8 µM): 0.209 | relative viability (EMC-BAC-2; first compound 0.08 µM): 1.25 | relative viability (EMC-BAC-2; first compound 0.253 µM): 1.24 | relative viability (EMC-BAC-2; first compound 0.8 µM): 1.05 | relative viability (EMC-BAC-2; first compound 2.53 µM): 0.876 | relative viability (EMC-BAC-2; first compound 8 µM): 1.18 | relative viability (ChaGo-K-1; first compound 0.08 µM): 0.524 | relative viability (ChaGo-K-1; first compound 0.253 µM): 0.587 | relative viability (ChaGo-K-1; first compound 0.8 µM): 0.598 | relative viability (ChaGo-K-1; first compound 2.53 µM): 0.638 | relative viability (ChaGo-K-1; first compound 8 µM): 0.478 | relative viability (NCI-H1975; first compound 0.08 µM): 0.161 | relative viability (NCI-H1975; first compound 0.253 µM): 0.195 | relative viability (NCI-H1975; first compound 0.8 µM): 0.122 | relative viability (NCI-H1975; first compound 2.53 µM): 0.13 | relative viability (NCI-H1975; first compound 8 µM): 0.252 | relative viability (H3255; first compound 0.08 µM): 0.935 | relative viability (H3255; first compound 0.253 µM): 1.02 | relative viability (H3255; first compound 0.8 µM): 0.794 | relative viability (H3255; first compound 2.53 µM): 0.723 | relative viability (H3255; first compound 8 µM): 0.977 | relative viability (NCI-H1666; first compound 0.08 µM): 0.961 | relative viability (NCI-H1666; first compound 0.253 µM): 1.04 | relative viability (NCI-H1666; first compound 0.8 µM): 1 | relative viability (NCI-H1666; first compound 2.53 µM): 0.934 | relative viability (NCI-H1666; first compound 8 µM): 0.827 | relative viability (NCI-H596; first compound 0.08 µM): 0.854 | relative viability (NCI-H596; first compound 0.253 µM): 0.968 | relative viability (NCI-H596; first compound 0.8 µM): 0.937 | relative viability (NCI-H596; first compound 2.53 µM): 0.939 | relative viability (NCI-H596; first compound 8 µM): 0.957 | relative viability (NCI-H1755; first compound 0.08 µM): 0.384 | relative viability (NCI-H1755; first compound 0.253 µM): 0.489 | relative viability (NCI-H1755; first compound 0.8 µM): 0.465 | relative viability (NCI-H1755; first compound 2.53 µM): 0.467 | relative viability (NCI-H1755; first compound 8 µM): 0.416 | relative viability (NCI-H520; first compound 0.08 µM): 0.233 | relative viability (NCI-H520; first compound 0.253 µM): 0.214 | relative viability (NCI-H520; first compound 0.8 µM): 0.217 | relative viability (NCI-H520; first compound 2.53 µM): 0.208 | relative viability (NCI-H520; first compound 8 µM): 0.331 | relative viability (NCI-H2170; first compound 0.08 µM): 0.551 | relative viability (NCI-H2170; first compound 0.253 µM): 0.599 | relative viability (NCI-H2170; first compound 0.8 µM): 0.785 | relative viability (NCI-H2170; first compound 2.53 µM): 0.407 | relative viability (NCI-H2170; first compound 8 µM): 0.669 | relative viability (NCI-H1563; first compound 0.08 µM): 0.498 | relative viability (NCI-H1563; first compound 0.253 µM): 0.535 | relative viability (NCI-H1563; first compound 0.8 µM): 0.531 | relative viability (NCI-H1563; first compound 2.53 µM): 0.483 | relative viability (NCI-H1563; first compound 8 µM): 0.557 | relative viability (SK-MES-1; first compound 0.08 µM): 0.756 | relative viability (SK-MES-1; first compound 0.253 µM): 0.73 | relative viability (SK-MES-1; first compound 0.8 µM): 0.685 | relative viability (SK-MES-1; first compound 2.53 µM): 0.652 | relative viability (SK-MES-1; first compound 8 µM): 0.552 | relative viability (EKVX; first compound 0.08 µM): 0.867 | relative viability (EKVX; first compound 0.253 µM): 0.984 | relative viability (EKVX; first compound 0.8 µM): 0.788 | relative viability (EKVX; first compound 8 µM): 0.891 | relative viability (PC-3 [JPC-3]; first compound 0.08 µM): 0.678 | relative viability (PC-3 [JPC-3]; first compound 0.253 µM): 0.667 | relative viability (PC-3 [JPC-3]; first compound 0.8 µM): 0.739 | relative viability (PC-3 [JPC-3]; first compound 2.53 µM): 0.533 | relative viability (PC-3 [JPC-3]; first compound 8 µM): 0.895 | relative viability (LOU-NH91; first compound 0.08 µM): 0.307 | relative viability (LOU-NH91; first compound 0.253 µM): 0.346 | relative viability (LOU-NH91; first compound 0.8 µM): 0.344 | relative viability (LOU-NH91; first compound 2.53 µM): 0.29 | relative viability (LOU-NH91; first compound 8 µM): 0.32 | relative viability (LK-2; first compound 0.08 µM): 0.193 | relative viability (LK-2; first compound 0.253 µM): 0.195 | relative viability (LK-2; first compound 0.8 µM): 0.191 | relative viability (LK-2; first compound 2.53 µM): 0.185 | relative viability (LK-2; first compound 8 µM): 0.202 | relative viability (NCI-H1734; first compound 0.08 µM): 0.201 | relative viability (NCI-H1734; first compound 0.253 µM): 0.192 | relative viability (NCI-H1734; first compound 0.8 µM): 0.178 | relative viability (NCI-H1734; first compound 2.53 µM): 0.184 | relative viability (NCI-H1734; first compound 8 µM): 0.185 | relative viability (SW 900; first compound 0.08 µM): 0.169 | relative viability (SW 900; first compound 0.253 µM): 0.191 | relative viability (SW 900; first compound 0.8 µM): 0.163 | relative viability (SW 900; first compound 2.53 µM): 0.175 | relative viability (SW 900; first compound 8 µM): 0.206
